Reference: patent publication US7323260B2, “Lubricant, recording medium and carboxylic acid compound” (Sony Corporation, priority 2003, dated 2008)

Assay: Evaluation of solubility in solvent
Format: physicochemical
Procedure: Solubility of lubricants which were used in Examples 1 to 11 and Comparative Example 3 in each of ethanol, acetone and toluene was evaluated. Evaluation results of solubility of the lubricants are shown in Table 10 by evaluation criteria as defined as follows: […]
Solubility of lubricants which were used in Examples 21 to 37 in each of ethanol, acetone and toluene was evaluated. Evaluation results of solubility of lubricants are shown in Table 19 by evaluation criteria as defined as follows: […]

Substance: C18H37CH(COOC12H25)(CH2)2COOCH2CF2(OCF2)p(OCF(CF3)CF2)qOCF3 [Comparative Example 3]
- solubility in a hydrocarbon type solvent (in words): hardly dissolved
